Reference: US9386938B2, “Methods for collagen imaging” (Collagen Medical, LLC, priority 2005, dated 2016)
“And” between values parts separate entries of the source, which are not always exact repeats. Identical values can stand only once. Like-named read-outs stand apart in the source and are kept apart here. Bridge positions count the residues as written; N and C are the ends. Ends that are not written are not given here. Glu‑DTPA‑Gd = N-terminal Glu-DTPA-Gd chelate (gadolinium DTPA complex on glutamic acid)

Tests used:
myocardium = assay: Myocardial MR imaging in mouse; type: in vivo, C57BL/6 mouse; details: 25 μmol/kg i.v. bolus, 4.7-T
[1] = Heart uptake in mice, gadolinium by ICP-MS; details: mouse, mesentery vein injection
Protocol: Male BALB/c mice were anesthetized with pentobarbital (80 mg/kg ip). Following deep anesthesia, a longitudinal incision was made above the base of the abdomen up to just below the sternum. Internal organs were carefully moved out of the body cavity to the left, exposing the mesentery vein. […] The animals were sacrificed at 1, 5, 15, or minutes post-injection. The heart and lungs were immediately removed and rinsed in saline, separated from each other and rinsed with saline again. Both were removed and carefully dried before being prepared for analysis. Organs were digested with nitric acid and gadolinium content determined by ICP-MS.

infarcted myocardium = assay: Myocardial infarction MR imaging in mouse, 7 days post MI; type: in vivo, C57BL/6 mouse; details: 25 μmol/kg i.v. bolus
[2] = In vivo heart uptake of collagen binding agent and non-binding analog; details: mouse, 10 μmol/kg tail vein, 15 minutes post-injection, N=4
[3] = rat, in vivo
Protocol: (§2) At either one or five minutes post injection the animals were sacrificed and the blood and heart collected. The heart was rinsed in a saline and blotted dry before analysis. […] An aliquot of the injection solution was also weighed and counted. Concentration estimates were decay corrected. Studies were performed at least in duplicate.

[4] = system: perfused Langendorff rat heart; assay: Washout kinetics from perfused Langendorff rat heart; details: perfusion with buffer for 10 minutes
Protocol: (§1) After deep anesthesia with pentobarbital (80 mg/kg ip), the chest cavity of a male Sprague Dawley rat (300 g) was opened, retracted and the heart was removed immediately and placed in an ice-cold normal Krebs-Henseleit (K-H) solution (NaCl, 118 mM; KCl, 4.7 mM; CaCl2, 2.5 mM; MgSO4, 1.2 mM; KH2PO4, 1.2 mM; NaHCO3, 25 mM; glucose, 5.5 mM). A K-H buffer filled 20 Gauge needle was inserted into the apex of the heart penetrating into the bottom of the chamber. This was attached to a pressure transducer used to record and monitor heart function. Perfusion pressure (˜60 mmHg) was monitored using a second transducer. The heart was perfused at a constant flow rate of 10-12 mL/min with 37° C. Krebs-Henseleit buffer saturated with a mixture of 95% O2 and 5% CO2 gas. The heart was paced at 300 beats/min.
A Langendorff rat heart preparation was perfused with K-H buffer at a rate of 10-12 mL/min. A one mL solution containing SEQ ID NO: 144 (300 μM), radiolabeled (I-125) SEQ ID NO: 144 (1-6 μCi), GdDTPA (300 μM), and radiolabeled (Tc-99m) DTPA (5-8 μCi) was infused into the heart at a rate of 1 mL/min. After the infusion was finished, the heart was either removed or perfusion was allowed to continue for an additional 10 minutes and then the heart was removed. The perfusion buffer was not recirculated through the heart. After removal of any connective tissue, the heart was opened, fluid in the chambers drained, and the interior blotted dry with filter paper. The heart was then weighed and the radioactivity in the heart measured with a Packard Cobra 5003 Gamma Scintillation counter. […] An aliquot of the K-H buffer was also weighed and counted. Concentration estimates were decay corrected. Studies were performed at least in duplicate.
A Langendorff rat heart preparation was perfused with K-H buffer at a rate of 10-12 mL/min. […] The heart was then weighed and the radioactivity in the heart measured with a Packard Cobra 5003 Gamma Scintillation counter. […] An aliquot of the K-H buffer was also weighed and counted. […]

[5] = system: perfused Langendorff rat heart; assay: Equilibrium binding to perfused Langendorff rat heart; details: 10 minutes
Protocol: as §1
Two peptide test articles, a high collagen binding peptide (SEQ ID NO: 144) and a low collagen binding peptide (SEQ ID NO: 173), are compared to GdDTPA. The appropriate test article was added to the K-H buffer solution to a total concentration of either 3 or 30 μM. Also added to the K-H buffer was a radiotracer analog of each peptide or GdDTPA. For the peptides, the radiotracer was an aliquot of the appropriate 1-125 labeled peptide derivative (see Example 5 for protocol). For GdDTPA, the tracer added was Tc-99m labeled DTPA. The amount of radioactivity added to the buffer solution was 1-5 μCi.
The heart was perfused for a period of 10 minutes and the perfusion solution was recycled through the heart. The total volume of K-H buffer used was 50-60 mL. After 10 min, the heart was removed from the apparatus and any connective tissue was removed. The heart was opened, fluid in the chambers drained, and the interior blotted dry with filter paper. The heart was then weighed and the radioactivity in the heart measured with a Packard Cobra 5003 Gamma Scintillation counter. An aliquot of the K-H buffer was also weighed and counted. Studies were performed at least in duplicate.
The dual peptide gadolinium tetramer (Compound ID 803) was compared to GdDTPA. Compound ID 803 and GdDTPA were added to the K-H buffer solution to a total concentration of 3 μM. Also added to the K-H buffer was a radiotracer analog of Compound ID 803 or GdDTPA. For Compound ID 803, the radiotracer was an aliquot of the In-111 labeled compound. For GdDTPA, the tracer added was Tc-99m labeled DTPA. The amount of radioactivity added to the buffer solution was 1-5 μCi.

rat type I collagen = biological target: T1, rat type I collagen (Rattus norvegicus, UniProt P02454+P02466); assay: MR phantom imaging at 4.7 T of rat collagen gel samples; details: samples 4 and 8 (centrifuged)
T1 construct: Rat collagen (acid soluble, type I, rat tail); purchased Upstate USA, Inc 08-115; host or cells: rat tail (tissue extract)
T1 sequence (P02454 152-1207 limits assumed): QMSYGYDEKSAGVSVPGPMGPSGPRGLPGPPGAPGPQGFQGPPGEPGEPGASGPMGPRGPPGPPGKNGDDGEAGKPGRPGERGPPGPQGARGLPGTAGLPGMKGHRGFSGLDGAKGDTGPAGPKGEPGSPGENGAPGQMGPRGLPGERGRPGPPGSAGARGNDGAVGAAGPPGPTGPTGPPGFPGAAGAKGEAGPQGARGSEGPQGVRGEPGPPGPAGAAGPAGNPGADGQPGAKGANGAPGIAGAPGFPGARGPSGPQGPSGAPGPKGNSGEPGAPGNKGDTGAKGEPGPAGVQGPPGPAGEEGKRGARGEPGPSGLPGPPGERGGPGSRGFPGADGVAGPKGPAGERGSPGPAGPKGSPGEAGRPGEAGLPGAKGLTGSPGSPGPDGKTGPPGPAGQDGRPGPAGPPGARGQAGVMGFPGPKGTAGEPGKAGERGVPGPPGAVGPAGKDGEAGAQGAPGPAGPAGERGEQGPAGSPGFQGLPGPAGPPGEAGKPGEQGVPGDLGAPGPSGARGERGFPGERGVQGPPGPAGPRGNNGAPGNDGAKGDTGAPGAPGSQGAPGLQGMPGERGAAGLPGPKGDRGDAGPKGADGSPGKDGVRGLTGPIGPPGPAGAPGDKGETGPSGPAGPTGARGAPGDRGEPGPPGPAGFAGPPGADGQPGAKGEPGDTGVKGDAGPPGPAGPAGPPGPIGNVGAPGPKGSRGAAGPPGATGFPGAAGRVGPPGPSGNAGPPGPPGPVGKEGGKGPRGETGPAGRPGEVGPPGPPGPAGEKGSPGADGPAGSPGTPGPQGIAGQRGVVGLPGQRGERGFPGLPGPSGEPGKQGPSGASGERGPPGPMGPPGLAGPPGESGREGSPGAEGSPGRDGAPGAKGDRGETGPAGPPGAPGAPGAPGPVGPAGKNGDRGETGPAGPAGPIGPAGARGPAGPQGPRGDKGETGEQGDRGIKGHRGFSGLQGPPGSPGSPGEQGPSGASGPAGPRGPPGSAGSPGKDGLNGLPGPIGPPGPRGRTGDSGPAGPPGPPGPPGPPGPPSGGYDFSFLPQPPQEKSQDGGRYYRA
T1 sequence (P02466 86-1125 limits assumed): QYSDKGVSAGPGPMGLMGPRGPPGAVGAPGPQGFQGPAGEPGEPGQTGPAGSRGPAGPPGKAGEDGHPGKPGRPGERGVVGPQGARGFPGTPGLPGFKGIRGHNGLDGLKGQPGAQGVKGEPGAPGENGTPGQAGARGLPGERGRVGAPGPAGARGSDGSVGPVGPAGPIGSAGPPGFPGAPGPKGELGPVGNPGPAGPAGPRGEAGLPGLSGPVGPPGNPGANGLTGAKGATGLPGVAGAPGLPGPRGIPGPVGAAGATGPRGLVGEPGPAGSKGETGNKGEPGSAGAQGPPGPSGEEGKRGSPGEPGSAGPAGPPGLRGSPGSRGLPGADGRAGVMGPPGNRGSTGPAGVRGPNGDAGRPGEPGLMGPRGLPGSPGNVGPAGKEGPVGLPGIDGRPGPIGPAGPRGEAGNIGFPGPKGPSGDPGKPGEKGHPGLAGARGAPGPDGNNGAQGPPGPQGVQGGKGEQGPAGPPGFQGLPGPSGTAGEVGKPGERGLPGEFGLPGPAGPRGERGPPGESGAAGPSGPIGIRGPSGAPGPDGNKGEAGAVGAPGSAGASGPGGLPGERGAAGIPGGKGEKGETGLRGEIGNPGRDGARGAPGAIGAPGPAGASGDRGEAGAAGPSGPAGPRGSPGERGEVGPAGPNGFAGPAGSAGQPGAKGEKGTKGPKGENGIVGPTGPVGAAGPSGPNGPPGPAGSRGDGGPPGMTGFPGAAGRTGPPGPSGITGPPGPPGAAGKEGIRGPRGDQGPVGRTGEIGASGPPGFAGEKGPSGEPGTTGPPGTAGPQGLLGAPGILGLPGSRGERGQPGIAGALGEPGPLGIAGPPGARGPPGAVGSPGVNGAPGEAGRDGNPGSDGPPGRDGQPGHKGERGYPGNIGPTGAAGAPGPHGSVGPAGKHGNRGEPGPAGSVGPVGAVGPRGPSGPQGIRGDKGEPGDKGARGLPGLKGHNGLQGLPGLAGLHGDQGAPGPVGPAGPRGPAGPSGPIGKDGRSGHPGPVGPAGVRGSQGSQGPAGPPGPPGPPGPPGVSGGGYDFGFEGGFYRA
Protocol: Samples: • 1. […] Sample prepared as sample 2, but centrifuged to separate insoluble rat collagen gel • 5. Sample prepared as sample 3, but centrifuged to separate insoluble human collagen gel • 6. 27 μM GdDTPA solution in PBS, pH 7.4 • 7. 27 μM GdDTPA in a solution of 5.0 μM rat type I collagen in 10 mM phosphate buffer, pH 5 incubated at 37° C. overnight to form a gel • 8. Sample prepared as in sample 7, but centrifuged to separate insoluble rat collagen gel • 9. Homogeneous gel of 5 μM rat collagen • 10. Homogeneous gel of 7.5 μM human collagen
Samples for imaging were placed in glass tubes that were in turn placed in tubes containing water. Images were acquired at 4.7 T on a Bruker Biospec Imager using a Multi-Slice Multi-Echo Method with variable Relaxation Delay (MSMEVTR) experiment. The spin echo time and the relaxation delay were set to TE=11.2 ms and TR=500 ms, respectively with a flip angle of 30°. Images were acquired of sample 2, sample 4, sample 7, and sample 8. […] Sample 7 and 8 show uniform signal intensity.

[6] = Biodistribution analysis in rats (heart and blood radioactivity); details: rat
Protocol: as §2

## CC(C)C[C@H](NC(=O)[C@@H]1CSSC[C@H](NC(=O)[C@H](Cc2c[nH]cn2)NC(=O)[C@H](Cc2c[nH]c3ccccc23)NC(=O)[C@H](CCCCNC(=O)CNC(=S)Nc2ccc(C[C@@H](CN(CCN(CC(=O)O)CC(=O)O)CC(=O)O)N(CC(=O)O)CC(=O)O)cc2)NC(=O)CNC(=S)Nc2ccc(C[C@@H](CN(CCN(CC(=O)O)CC(=O)O)CC(=O)O)N(CC(=O)O)CC(=O)O)cc2)C(=O)N[C@@H]([C@@H](C)O)C(=O)N[C@@H]([C@@H](C)O)C(=O)N[C@@H](CCCCNC(=S)Nc2ccc(C[C@@H](CN(CCN(CC(=O)O)CC(=O)O)CC(=O)O)N(CC(=O)O)CC(=O)O)cc2)C(=O)N[C@@H](Cc2ccccc2)C(=O)N2CCC[C@H]2C(=O)N[C@@H](Cc2c[nH]cn2)C(=O)N[C@@H](Cc2c[nH]cn2)C(=O)N[C@@H](Cc2ccc(O)cc2)C(=O)N1)C(=O)N[C@@H](Cc1ccc(O)cc1)C(=O)N[C@@H](Cc1ccc(-c2ccccc2)cc1)C(N)=O [Compound ID 800]
myocardium
  persistence of positive enhancement of the myocardium: at least 1 hour
[1]
  retention of gadolinium in the heart: ≥ 30 min
Infarcted myocardium
  MR enhancement of infarcted regions: hyperenhancement of infarcted zones
  persistence of enhancement: at least 1 hour

## CC(C)C[C@H](NC(=O)[C@@H]1CSSC[C@@H](NC(=O)[C@H](Cc2c[nH]cn2)NC(=O)[C@H](Cc2c[nH]c3ccccc23)NC(=O)[C@H](CCCCNC(=O)CNC(=S)Nc2ccc(C[C@@H](CN(CCN(CC(=O)O)CC(=O)O)CC(=O)O)N(CC(=O)O)CC(=O)O)cc2)NC(=O)CNC(=S)Nc2ccc(C[C@@H](CN(CCN(CC(=O)O)CC(=O)O)CC(=O)O)N(CC(=O)O)CC(=O)O)cc2)C(=O)N[C@@H]([C@@H](C)O)C(=O)N[C@@H]([C@@H](C)O)C(=O)N[C@@H](CCCCNC(=S)Nc2ccc(C[C@@H](CN(CCN(CC(=O)O)CC(=O)O)CC(=O)O)N(CC(=O)O)CC(=O)O)cc2)C(=O)N[C@@H](Cc2ccccc2)C(=O)N2CCC[C@H]2C(=O)N[C@@H](Cc2c[nH]cn2)C(=O)N[C@@H](Cc2c[nH]cn2)C(=O)N[C@@H](Cc2ccc(O)cc2)C(=O)N1)C(=O)N[C@@H](Cc1ccc(O)cc1)C(=O)N[C@@H](Cc1ccc(-c2ccccc2)cc1)C(N)=O [Compound ID 1019]
[2]
  Gadolinium concentration in the blood: 13.3±0.3 nmol Gd/g tissue
  Gadolinium concentration in the heart: 14.7±1.0 nmol Gd/g tissue

## Q W T C S G D A Y T W H C N Y E (GQWTCSGDAYTWHCNYE; disulfide 5-14 (inferred); not fully specified (C-terminus)) [SEQ ID NO. 144, -G- linker at the N-terminus]
[3]
  Heart:Blood: 0.38
[4]
  amount remaining in heart at 10 minutes after infusion relative to 0 minutes post infusion: 68%
[5]
  heart uptake relative to GdDTPA: about 10 times

## Glu-DTPA-Gd-G.Q.W.H.C.T.T.R.F.P.H.H.Y.C.L.Y.G-PEG-H ({Glu‑DTPA‑Gd}-GQWHCTTRFPHHYCLYG; disulfide 5-14 (inferred); not fully specified (C-terminus)) [SEQ ID NO. 186]
Rat type I collagen
  MR signal of centrifuged rat collagen gel pellet versus supernatant: the pellet for sample 4 was much brighter than the supernatant

## O=C([O-])CN(CCN(CC(=O)[O-])CC(=O)O)CCN(CC(=O)[O-])CC(=O)O.[Gd+3] [GdDTPA, gadolinium diethylenetriaminepentaacetate, reference compound]
Rat type I collagen
  MR signal of centrifuged rat collagen gel pellet versus supernatant: no increased concentration of GdDTPA in the gel relative to the supernatant
[4]
  amount remaining in heart at 10 minutes after infusion relative to 0 minutes post infusion: 0.5% and 2.2%
[6]; 1 min post injection
  Heart:Blood: 0.26
[6]; 5 min post injection
  Heart:Blood: 0.26
